Results on 11 compounds are retold here after ChEMBL document CHEMBL1201862, “PubChem BioAssay data set” (2004).

Common to all, as to test: NCI anticancer screen, dose series, 48 h
The test system of test [1] is 786-0.
For test [2], the system named is A498.
For test [3], the system named is ACHN.
Test [4] deals with CAKI-1.
Test [5] concerns HT-29.
Test [6] deals with Hs-578T.
Test [7] relates to K562.
Test [8] concerns MOLT-4.
In test [9] the test system is NCI-H522.
For test [10], the system named is OVCAR-5.
The test system of test [11] is PC-3.
Test [12] deals with SF-539.
Test [13] has as its system SK-MEL-2.
Test [14] has as its system SNB-75.
In test [15] the test system is SW-620.
For test [16], the system named is T47D.
Test [17] relates to U-251.
Test [18] deals with UACC-257.
Test [19] relates to UACC-62.
Test [20] deals with SK-OV-3.

The structures appear in SMILES notation.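 Tested at 5 concentrations; 48 h exposure; 96-well plates; endpoints linearly interpolated, else capped at highest concentration. GI50 is the concentration that inhibits growth by half.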 Activity calls are given as the source filed them. Cut-off read from the data, not from the text of the source: active = GI50 up to about 1.1 µM and inactive = higher. Some results are limits rather than exact numbers.

As for `CC(=O)OCC(C)C1=C(O)C(=O)C2(C)C/C=C(/C)CC/C=C(\C)CCC(O)C(C)CCC12` (stereo unspecified), the GI50 is 16.9 µM (inactive) in [1]; 21.6 µM (inactive) in test [2]; 16.7 µM (inactive) in [3]; 17.3 µM (inactive) in test [4]; 17.3 µM (inactive) in test [5]; 19.6 µM (inactive) in test [6]. The GI50 in test [7] is 14.1 µM (inactive); in [8], 10 µM (inactive); in test [9] it was 17.3 µM (inactive); in test [10] it was 17.3 µM (inactive); in [11] it was 15.3 µM (inactive); in test [12] it was 16.3 µM (inactive). The GI50 was 20.7 µM (inactive) in [13]; 16.2 µM (inactive) in test [14]; 19.2 µM (inactive) in test [15]; 1.94 µM (inactive) in test [16]; 17 µM (inactive) in test [17]; 18.6 µM (inactive) in test [18]. For the same compound, the GI50 in [19] is 18.8 µM (inactive).
Turning to `COc1cc(/C=C/c2ccc(C)cc2)cc(OC)c1OC`, the GI50 in test [1] is 3.87 µM (inactive); in [3], 6.31 µM (inactive); in test [4], 5.9 µM (inactive); in test [5], 2.69 µM (inactive); in test [6], 2.56 µM (inactive); in test [7] it was 3.1 µM (inactive). Further, the GI50 in test [8] was 3.91 µM (inactive); in [9], 2.25 µM (inactive); in test [10] it was 12.7 µM (inactive); in [11] it was 2.67 µM (inactive); in [12] it was 2.42 µM (inactive); in test [13] it was 7.18 µM (inactive). For the same compound, the GI50 in test [20] was 6.84 µM (inactive); in test [14], 2.58 µM (inactive); in [15], 4.29 µM (inactive); in test [16], 4.1 µM (inactive); in test [17], 3.78 µM (inactive); in [18], 6.97 µM (inactive). In test [19], the GI50 is 3.44 µM (inactive).
Regarding `Cc1ccc(NCC2CC/C(=C\c3ccc(Cl)cc3)C2=O)cc1` (stereo unspecified), the GI50 is 4.12 µM (inactive) in test [1]; 30.7 µM (inactive) in test [2]; 10.3 µM (inactive) in test [3]; 15.2 µM (inactive) in test [4]; 12.4 µM (inactive) in test [5]; 29 µM (inactive) in test [6]. The GI50 in test [7] is 1.74 µM (inactive); in test [8], 3.84 µM (inactive); in test [9], 7.38 µM (inactive); in test [10] it was 22 µM (inactive); in test [11] it was 14.9 µM (inactive); in [12], 23.7 µM (inactive). In addition, the GI50 in test [20] was > 100 µM (inactive); in test [14], > 100 µM (inactive); in [15], 3.67 µM (inactive); in [16], 15.1 µM (inactive); in test [17], 17 µM (inactive); in test [18], 17.4 µM (inactive). Besides, the GI50 in [19] is 18.4 µM (inactive).
As to `COc1ccc(OCc2ccc3nc(-c4ccccc4)c(Cl)nc3c2)cc1`, the GI50 in test [1] was 10.6 µM (inactive); in test [2] it was 26.4 µM (inactive); in test [3], 27.9 µM (inactive); in test [4] it was 22.3 µM (inactive); in [5], 76.7 µM (inactive); in test [6], 23.4 µM (inactive). In addition, the GI50 in test [7] is 0.0889 µM (active); in test [8], 34.4 µM (inactive); in test [9] it was 10.7 µM (inactive); in test [10], 32.1 µM (inactive); in [11] it was 40.9 µM (inactive); in test [12], 12.9 µM (inactive). The GI50 was 26.9 µM (inactive) in test [13]; 36 µM (inactive) in test [14]; 43.2 µM (inactive) in test [15]; 45 µM (inactive) in [16]; 12.3 µM (inactive) in test [17]; > 100 µM (inactive) in test [18]. Also, the GI50 in test [19] is > 10 µM (inactive).
As for `CS(C)(=O)=N/C=C\C(=O)C(Cl)(Cl)Cl`, the GI50 in test [1], in [3], in test [4], in test [5], in [6] and in [7] was > 100 µM (inactive) throughout. Also, the GI50 in test [8] was 53.8 µM (inactive); in test [9], 36.1 µM (inactive); in [10], > 100 µM (inactive); in test [11], 54 µM (inactive); in [12] it was > 100 µM (inactive); in [13], 46.8 µM (inactive). Also, the GI50 was > 100 µM (inactive) in test [20]; > 100 µM (inactive) in test [14]; > 100 µM (inactive) in test [15]; > 100 µM (inactive) in test [16]; 79.1 µM (inactive) in [17]; > 100 µM (inactive) in test [18]. Moreover, in test [19], the GI50 was 92.3 µM (inactive).
Consider `CCCCCCC1CC(=O)C1(Cl)Cl` (stereo unspecified), for which the GI50 in test [1] was 15 µM (inactive); in test [3], 18.3 µM (inactive); in test [4] it was 18.9 µM (inactive); in test [5] it was 26.7 µM (inactive); in test [6], 20 µM (inactive); in test [7], 14.7 µM (inactive). Further, the GI50 was 13.5 µM (inactive) in [8]; 17.3 µM (inactive) in test [9]; > 100 µM (inactive) in test [10]; 25.1 µM (inactive) in test [11]; 31.3 µM (inactive) in test [12]; 30.9 µM (inactive) in test [13]. In addition, the GI50 is > 100 µM (inactive) in test [20]; 16.6 µM (inactive) in test [14]; 19.6 µM (inactive) in test [15]; 27.5 µM (inactive) in [16]; 38.3 µM (inactive) in test [17]; 18.7 µM (inactive) in test [18]. In addition, the GI50 in test [19] is 20.3 µM (inactive).
Regarding `CCOP(=O)(OCC)C1C(CO)OC(n2ccc(=O)[nH]c2=O)C1O` (stereo unspecified), the GI50 in test [1], in test [2], in test [3], in test [4], in test [5] and in test [6] was > 100 µM (inactive) each time. For the same compound, the GI50 in test [7] is > 100 µM (inactive); in [8] it was > 10 µM (inactive); in test [9], > 100 µM (inactive); in [11] it was > 100 µM (inactive); in test [12], > 100 µM (inactive); in test [13], > 100 µM (inactive). In addition, the GI50 in [14] was 35.9 µM (inactive); in test [15], > 100 µM (inactive); in test [16], > 100 µM (inactive); in test [18], > 100 µM (inactive); in [19], > 100 µM (inactive).
Turning to `Oc1cnnc2nc3ccccc3n12`, the GI50 in test [1], in test [2], in test [3], in test [4], in test [5] and in test [6] was > 100 µM (inactive) throughout. Further, the GI50 in [8], in test [9], in test [10], in test [11], in test [12] and in test [13] was > 100 µM (inactive) in each case. Moreover, the GI50 in [14], in test [15], in test [16], in [17] and in [18] was > 100 µM (inactive) each time.
Regarding `COc1cc(COC(=O)NC(Cc2cccs2)C(=O)O)c([N+](=O)[O-])cc1OC` (stereo unspecified), the GI50 was > 100 µM (inactive) in [1]; 39.3 µM (inactive) in test [2]; > 100 µM (inactive) in [3]; > 100 µM (inactive) in [5]; > 100 µM (inactive) in test [6]; > 100 µM (inactive) in test [7]. Further, the GI50 is > 100 µM (inactive) in test [8]; > 100 µM (inactive) in test [10]; > 100 µM (inactive) in test [11]; > 100 µM (inactive) in [12]; > 100 µM (inactive) in [20]; 59.2 µM (inactive) in test [14]. The GI50 in test [15], in test [16], in [17], in [18] and in test [19] was > 100 µM (inactive) each time.
Consider `c1ccc2c3c(ccc2c1)CSCc1ccc2ccccc2c1-3`, for which the GI50 in test [1], in test [2], in test [3], in test [4], in test [5] and in [6] was > 100 µM (inactive) in each case. For the same compound, the GI50 in [7] was > 100 µM (inactive); in test [8], 36.6 µM (inactive); in test [9], > 100 µM (inactive); in test [10] it was > 100 µM (inactive); in test [11] it was > 100 µM (inactive); in [12], 54.1 µM (inactive). The GI50 was > 100 µM (inactive) in test [13]; > 100 µM (inactive) in [14]; > 100 µM (inactive) in test [16]; > 100 µM (inactive) in test [17]; 43.5 µM (inactive) in test [18]; > 100 µM (inactive) in test [19].
As for `CC(=O)OCc1cc(CCC(=O)NCCNc2c3ccccc3nc3ccccc23)cc(COC(C)=O)c1O[Si](C)(C)C(C)(C)C`, the GI50 in test [1] is 8.81 µM (inactive); in [2], 1.91 µM (inactive); in test [3] it was 13.8 µM (inactive); in test [5], 2.63 µM (inactive); in test [6] it was 3.3 µM (inactive); in [7], 2.65 µM (inactive). Also, the GI50 in test [8] is 2.4 µM (inactive); in [9] it was 5.5 µM (inactive); in [10], 13.4 µM (inactive); in [11] it was 10.5 µM (inactive); in test [12] it was 2.59 µM (inactive); in [13] it was 8.95 µM (inactive). In addition, the GI50 in test [20] was 13.9 µM (inactive); in test [15], 9.44 µM (inactive); in [16], 1.97 µM (inactive); in test [17], 4.88 µM (inactive); in test [18], 4.36 µM (inactive); in [19], 6.9 µM (inactive).
